The experiment deals with PAF receptor (Oryctolagus cuniculus, UniProt G1TEI7). Kind of experiment: PAF receptor binding assay: inhibition of specific [3H]C18-PAF binding to rabbit platelet membranes. The settings on record: 0.6 nM [3H]C18-PAF, 60 min, 22-23 °C, Ki from IC50 (Cheng and Prusoff). Here is the method:
The ability of representative compounds of the present invention to inhibit PAF activity was determined in an in vitro test using the following method.
Citrated whole rabbit blood was obtained from Pel-Freez (Rogers, AR). Rabbit platelets were prepared by centrifugation and washing. The platelets were lysed by freeze-thawing and sonication; platelet membranes were prepared by centrifugation and washing. Final membrane preparations were stored frozen in 10 mM Tris/5 mM MgCl2 /2 mM EDTA (TME buffer, pH 7.0) with 0.25M sucrose added for membrane stabilization.
The standard PAF receptor binding assay contained 10 μg platelet membrane protein, 0.6 nM [^3 H]C18 -PAF (from Amersham or New England Nuclear; specific activity 120-180 Ci/mmol), with and without test compound, in "binding buffer" consisting of TME with 0.25% bovine serum albumin added (Sigma, RIA grade). The final volume of the assay was 100 μl. The assay was conducted in Millititre-GV™ (Millipore Corp.) filtration plates; incubation time was for 60 minutes at room temperature (22°-23° C.). "Specific binding" was operationally defined as the arithmetic difference between "total binding" of 0.6 nM [^3 H]C18 -PAF (in the abasence of added PAF) and "nonspecific binding" (in the presence of 1 μM PAF). After the prescribed incubation, platelet membranes were filtered under vacuum, and washed with 1 milliliter of "binding buffer". The filters were dried and removed. The bound radioactivity was quantitated with a Berthold TLC-Linear Analyzer model LB2842.
Dose-response curves of inhibition of specific [^3 H]C18 -PAF binding by test compounds were conducted in triplicate, with at least four doses covering the active range. Experiments were repeated at least once. IC50 values (concentration producing 50% inhibition) were determined by point-to-point evaluation. Ki values of inhibitory binding constants were calculated according to the method of Cheng and Prusoff [Biochem. Pharmacol. 22 (1973) 3099-3108] whereby [formula]
The values of Ki for representative compounds of the present invention appear in Table 1.

Setting [1] is: read-out: Ki (PAF Receptor Binding Activity).
[2] abbreviates: Ki (PAF Receptor Binding Activity).

The structures appear in SMILES notation. Structures can show the parent of a compound that is named as a salt. Where two headings read alike, the source gives them in different places.

Sequence of PAF receptor (G1TEI7 1-342): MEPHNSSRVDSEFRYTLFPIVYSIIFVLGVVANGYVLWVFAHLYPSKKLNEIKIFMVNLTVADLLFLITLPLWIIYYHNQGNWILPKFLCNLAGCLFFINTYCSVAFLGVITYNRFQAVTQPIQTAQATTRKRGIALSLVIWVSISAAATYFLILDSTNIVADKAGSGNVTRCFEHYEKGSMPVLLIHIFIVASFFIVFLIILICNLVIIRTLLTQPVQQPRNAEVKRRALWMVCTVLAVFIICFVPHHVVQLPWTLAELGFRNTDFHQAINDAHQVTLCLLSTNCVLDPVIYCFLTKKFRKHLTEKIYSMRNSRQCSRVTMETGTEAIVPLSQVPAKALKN

In the case of `CC(C)(C)OC(=O)n1cc(C(=O)C2CSC(c3cccnc3)N2)c2ccccc21` (centres unmarked) [Example 28, 1-tert-butoxycarbonyl-3-[2-(3-pyridinyl)thiazolid-4-oyl]indole oxalate], under setting [1], the inhibitory constant (Ki) – broadly, a measure of affinity in units of concentration, obtained from inhibition or displacement – amounted to 0.002 µM.

Regarding `O=C(c1c[nH]c2ccccc12)C1CSC(c2cccnc2)S1` (centres unmarked) [Example 31, 3-2-(3-pyridinyl)dithiolan-4-oyl]indole oxalate], under setting [1], the Ki was 1.7 µM.

Regarding `O=C(c1cn(S(=O)(=O)c2ccccc2)c2ccccc12)C1CSC(c2cccnc2)S1` (centres unmarked) [Example 32, 1-phenylsulfonyl 3-[2-(3-pyridinyl)dithiolan-4-oyl]indole oxalate], under setting [1], the inhibitory constant (Ki) is 1 µM.

For the molecule `O=C(c1c[nH]c2cc(OCc3ccccc3)ccc12)C1CSC(c2cccnc2)N1` (centres unmarked) [Example 34, 6-phenylmethoxy-3-[2-(3-pyridinyl)thiazolid-4-oyl]indole], the inhibition constant (Ki) under setting [1] stood at 0.002 µM.

For `CC(C)(C)OC(=O)n1cc(C(=O)C2CSC(c3cccnc3)N2)c2ccc(OCc3ccccc3)cc21` (centres unmarked) [Example 35, 1-tert-butoxycarbonyl-6-phenylmethoxy-3-[2-(3-pyridinyl)thiazolid-4-oyl]indole oxalate], under setting [1], the Ki was 0.001 µM.

For the molecule `O=C(c1cn(S(=O)(=O)c2ccccc2)c2ccccc12)C1CSC(c2cccnc2)N1` (centres unmarked) [Example 36, 1-phenylsulfonyl-3-[2-(3-pyridinyl)thiazolid-4-oyl]indole], the Ki under setting [1] stood at 0.03 µM.

Turning to `CS(=O)(=O)n1cc(C(=O)C2CSC(c3cccnc3)N2)c2ccccc21` (centres unmarked) [Example 37, 1-methylsulfonyl-3-[2-(3-pyridinyl)thiazolid-4-oyl-]indole], under setting [2], the affinity, expressed as Ki, was 0.015 µM.

For `CN(C)C(=O)n1cc(C(=O)C2CSC(c3cccnc3)N2)c2ccccc21` (centres unmarked) [Example 38], the Ki under setting [1] was 0.001 µM.

`Cc1[nH]c2ccccc2c1C(=O)C1CSC(c2cccnc2)N1` (centres unmarked) [Example 39]: the Ki under setting [2] was 0.023 µM.

In the case of `Cc1c(C(=O)C2CSC(c3cccnc3)N2)c2ccccc2n1C(=O)OC(C)(C)C` (centres unmarked) [Example 40, 1-tert-butoxycarbonyl-2-methyl-3-[2-(3-pyridinyl)thiazolid-4-oyl]indole oxalate], the inhibitory constant (Ki) under setting [1] amounted to 0.01 µM.

Consider `O=C(c1cn(C(=O)c2ccc(Cl)cc2)c2ccccc12)C1CSC(c2cccnc2)N1` (centres unmarked) [Example 44, 1-(4-chlorobenzoyl)-3-[2-(3-pyridinyl)thiazolid-4oyl]indole], for which the Ki under setting [1] was found to be 0.004 µM.

Consider `O=C(c1cn(C(=O)OCc2ccccc2)c2ccccc12)C1CSC(c2cccnc2)N1` (centres unmarked) [Example 45, 1-phenylmethoxycarbonyl-3-[2-(pyridinyl)thiazolid-4-oyl]indole oxalate], for which the Ki under setting [1] was found to be 0.003 µM.

Under setting [2], `O=C(c1cn(Cc2ccccc2)c2ccccc12)C1CSC(c2cccnc2)N1` (centres unmarked) [Example 46, 1-phenylmethyl-3-[2-(3-pyridinyl)thiazolid-4-oyl]indole] had an inhibition constant Ki of 0.05 µM.

As for `CC(C)(C)C(=O)n1cc(C(=O)C2CSC(c3cccnc3)N2)c2ccccc21` (centres unmarked) [Example 47, 1-tert-butoyl-3-[2-(3-pyridinyl)thiazolid-4-oyl]indole], the inhibition constant (Ki) under setting [1] was found to be 0.009 µM.

With `CCN(CC)C(=O)n1cc(C(=O)C2CSC(c3cccnc3)N2)c2ccccc21` (centres unmarked) [Example 48, 1-diethylcarbamoyl-3-[2-(3-pyridinyl)thiazolid-4-oyl]indole], the inhibition constant (Ki) under setting [1] was determined as 0.001 µM.

For `CN(C(=O)n1cc(C(=O)C2CSC(c3cccnc3)N2)c2ccccc21)c1ccccc1` (centres unmarked) [Example 49, 1-(N-methyl, N-phenyl)-3-[2-(3-pyridinyl)thiazolid-4-oyl]indole], the Ki under setting [1] is 0.025 µM.

In the case of `O=C(c1c[nH]c2c(OCc3ccccc3)cccc12)C1CSC(c2cccnc2)N1` (centres unmarked) [Example 50, 7-phenylmethoxy-3-[2-(3-pyridinyl)thiazolid-4-oyl]indole], under setting [1], the inhibition constant Ki was found to be 0.001 µM.

For `CN(C)C(=O)n1cc(C(=O)C2CSC(c3cccnc3)N2)c2cccc(OCc3ccccc3)c21` (centres unmarked) [Example 51, 1-dimethylcarbamoyl)-7-phenylmethoxy-3-[2-(3-pyridinyl)thiazolid-4-oyl]indole oxalate], the Ki under setting [1] amounted to 0.013 µM.

For `CN(C)C(=O)n1cc(C(=O)C2CSC(c3cccnc3)N2)c2ccc(OCc3ccccc3)cc21` (centres unmarked) [Example 52, 1-dimethylcarbamoyl-6-phenylmethoxy-3-[2-(3-pyridinyl)thiazolid-4-oyl]indole], the Ki under setting [1] is 0.001 µM.

Take `CC(C)(C)OC(=O)n1cc(C(=O)C2CSC(c3cccnc3)N2)c2cccc(OCc3ccccc3)c21` (centres unmarked) [Example 53, 1-tert-butoxycarbonyl-7-phenylmethoxy-3-[2-(3-pyridinyl)thiazolid-4-oyl]indole]: under setting [1], the inhibition constant (Ki) stood at 0.001 µM.

With `CC(C)(C)NC(=O)n1cc(C(=O)C2CSC(c3cccnc3)N2)c2ccccc21` (centres unmarked) [Example 54], the inhibitory constant (Ki) under setting [1] worked out at 0.009 µM.

For the molecule `O=C(c1cn(C(=O)N2CCOCC2)c2ccccc12)C1CSC(c2cccnc2)N1` (centres unmarked) [Example 55, 1-(4-morpholinocarbonyl)-3-[2-(3-pyridinyl)thiazolid-4-oyl]indole], the inhibition constant Ki under setting [1] was 0.002 µM.

As to `CC(C)(C)OC(=O)n1cc(C(=O)C2CSC(c3cccnc3)N2C=O)c2ccccc21` (centres unmarked) [Example 56, 1-tert-butoxycarbonyl-3-[2-(3-pyridinyl)-3-formylcarbonylthiazolid-4-oyl]indole], the inhibitory constant (Ki) under setting [1] turned out to be 0.15 µM.

Regarding `CC(=O)N1C(C(=O)c2cn(C(=O)OC(C)(C)C)c3ccccc23)CSC1c1cccnc1` (centres unmarked) [Example 57, 1-tert-butoxycarbonyl-3-[2-(3-pyridinyl)-3-acetylthiazolid-4-oyl]indole], the inhibition constant Ki under setting [1] stood at 0.01 µM.

For the molecule `CC(C)(C)OC(=O)n1cc(C(=O)C2CSC(c3cccnc3)N2C(N)=O)c2ccccc21` (centres unmarked) [Example 58, 1-tert-butoxycarbonyl-3-[2-(3-pyridinyl)-3-carbamoylthiazolid-4-oyl]indole], the Ki under setting [1] was 0.54 µM.

In turn, `O=C(c1cn(CC(F)(F)F)c2ccccc12)C1CSC(c2cccnc2)N1` (centres unmarked) [Example 59, 1-trifluoroethyl-3-[2-(3-pyridinyl)thiazolid-4-oyl]indole] gave an inhibition constant (Ki) under setting [2] of 0.02 µM.

On to `CCOC(=O)Cn1cc(C(=O)C2CSC(c3cccnc3)N2)c2ccccc21` (centres unmarked) [Example 60, 1-ethoxycarbonylmethyl-3-[2-(3-pyridinyl)thiazolid-4-oyl]indole], for which, under setting [2], the inhibition constant (Ki) is 0.002 µM.

`CCCn1cc(C(=O)C2CSC(c3cccnc3)N2)c2ccccc21` (centres unmarked) [Example 61, 1-propyl-3-[2-(3-pyridinyl)thiazolid-4-oyl]indole] registered a Ki under setting [2] of 0.008 µM.

As to `CCS(=O)(=O)n1cc(C(=O)C2CSC(c3cccnc3)N2)c2ccccc21` (centres unmarked) [Example 62, 1-ethylsulfonyl-3-[2-(3-pyridinyl)thiazolid-4-oyl]indole], the inhibitory constant (Ki) under setting [1] is 0.018 µM.

For the molecule `Cc1c(C(=O)C2CSC(c3cccnc3)N2)c2ccccc2n1C(=O)N1CCOCC1` (centres unmarked) [Example 64, 1-(1-morpholinocarbonyl)-2-methyl-3-[2-(3-pyridinyl)thiazolid-4-oyl]indole], the Ki under setting [1] was determined as 0.088 µM.

As for `Cc1c(C(=O)C2CSC(c3cccnc3)N2)c2ccccc2n1C(=O)N(C)C` (centres unmarked) [Example 65, 1-dimethylcarbamoyl-2-methyl-3-[2-(3-pyridyl)thiazolid-4-oyl]indole], under setting [1], the inhibition constant (Ki) was 0.009 µM.

In turn, `Cc1ccc2[nH]c(C)c(C(=O)C3CSC(c4cccnc4)N3)c2c1` (centres unmarked) [Example 66, 2,5-dimethyl-3-[2-[3-pyridinyl)thiazolid-4-oyl]indole oxalate] gave an inhibition constant Ki under setting [2] of 0.031 µM.

Turning to `Cc1ccc2c(c1)c(C(=O)C1CSC(c3cccnc3)N1)c(C)n2C(=O)OC(C)(C)C` (centres unmarked) [Example 67, 1-tert-butoxycarbonyl-2,5-dimethyl-3-[2-[3-pyridinyl)thiazolid-4-oyl]indole oxalate], the Ki under setting [1] amounted to 0.039 µM.

For the molecule `Cc1ccc2c(c1)c(C(=O)C1CSC(c3cccnc3)N1)c(C)n2C(=O)N1CCOCC1` (centres unmarked) [Example 68, 1-(4-morpholinocarbonyl)-2,5-dimethyl-3-[2-(3-pyridinyl)thiazolid-4-oyl]indole], the Ki under setting [1] was found to be 0.036 µM.

As to `Cc1ccc2c(c1)c(C(=O)C1CSC(c3cccnc3)N1)c(C)n2C(=O)N(C)C` (centres unmarked) [Example 69, 1-dimethylcarbamoyl-2,5-dimethyl-3-[2-(3-pyridinyl)thiazolid-4oyl]indole oxalate], the Ki under setting [1] was 0.013 µM.

As for `O=C(c1c[nH]c2cc(Oc3ccc(F)cc3)ccc12)C1CSC(c2cccnc2)N1` (centres unmarked) [Example 70, 3-[2-(3-pyridinyl)thiazolid-4-oyl]-6-(4-fluorophenoxy)indole], the Ki under setting [1] is 0.002 µM.

As to `CN(C)C(=O)n1cc(C(=O)C2CSC(c3cccnc3)N2)c2ccc(Oc3ccc(F)cc3)cc21` (centres unmarked) [Example 71, 1-dimethylcarbamoyl-3-[2-(3-pyridinyl)thiazolid-4-oyl]-6-(4-fluorophenoxy)indole], the inhibitory constant (Ki) under setting [1] worked out at 0.002 µM.

For `O=C(c1cn(C(=O)N2CCOCC2)c2cc(OCc3ccccc3)ccc12)C1CSC(c2cccnc2)N1` (centres unmarked) [Example 72, 1-(4-morpholinocarbonyl)-3-[2-(3-pyridinyl)thiazolid-4-oyl]-6-phenylmethoxyindole oxalate], under setting [1], the inhibition constant (Ki) is 0.01 µM.

For the origin of these results see patent US5382670A, “Platelet activating factor antagonists” (priority 1993, dated 1995).
